Data as given in paper PMC8910920 (International Journal of Molecular Sciences, 2022).

How the values were obtained:
[1] = target: T1, hTRPM8 (Homo sapiens, UniProt Q7Z2W7); assay: Ca2+ microfluorography assay, HEK293 cells expressing hTRPM8; assay type: cell-based; conditions: HEK293-hTRPM8, 100 μM menthol
T1 construct: expressed in transfected cells
Method: This represents a similar activity as β–lactam 2 and a somewhat higher potency than the model TRPM8 antagonists AMTB.
To measure the effect of the compounds against TRPM8 activity we used microfluorometry-based calcium flux assays with Fluo-4 NW Ca^2+ dye and fluorescence as described in [30]. Briefly, human embryonic kidney cell line (HEK293) cells stably transfected with rTRPM8 or hTRPM8 were seeded in 96-well plates at a cell density of 30,000 cells. After 2 days the medium was replaced with 100 μL of the dye, Fluo-4 NW, loading solution supplemented with probenecid 2.5 mM and incubated 1 h at 37 °C. The TRPM8 activity was measured using POLASTAR plate reader (BMG Labtech) setting the excitation wavelength at 485 nm and the emission wavelength at 520 nm. The baseline fluorescence was recorded for 3 cycles before the addition of vehicle compound at different concentrations and the antagonist, 10 μM AMTB. Fluorescence intensity was recorded during 7 more cycles and 100 μM menthol was added. Fluorescence intensity was recorded during 10 more cycles.
Data analysis: The Z-factor was calculated in each assay using the following equation: (3 × (SDmax + SDmin))/(Mean max-Mean min). In all the experiments, the Z-factor was ≥0.5. The effect of the compounds against TRPM8 activity was determined by normalizing their effect on the maximum fluorescence observed after application of 100 μM menthol. […]

[2] = tested on: OXA-induced cold hypersensitivity in male mice; assay: Oxaliplatin-induced peripheral neuropathy, acetone drop test; assay type: in vivo, mouse
Method: For the OXA-induced peripheral neuropathy assay, OXA was […] injected on days 1, 3 and 5 to male mice, at a 6 mg/kg dose, to induce hypersensitivity to cold, as monitored by the acetone drop test (Figure 6).
For the experiments, 6–8 weeks C57 male mice (≈30g) (Harlam, Holland) were used. All experiments were approved by the Institutional Animal and Ethical Committee of the Universidad Miguel Hernandez and Comunidad Valencian ethical committees (2021/VSC/PEA/0089) where experiments were conducted and they were in accordance with the guidelines of the Economic European Community and the Committee for Research and Ethical Issues of the International Association for the Study of Pain. All parts of the study concerning animal care were performed under the control of veterinarians. Experiments were performed blinded for NTG and compound treatment.
Oxaliplatin (OXA, Tocris, Bristol, UK) was used to induce peripheral neuropathy and was dissolved in water with gentle warming as formerly described. OXA was intraperitoneally injected on days 1, 3 and 5 at a 6 mg/kg dose. […] Cold chemical sensitivity was assessed using the acetone drop test. […] Positive nociceptive responses (licking time in seconds) were recorded with a digital stopwatch during 20 s (cut-off). Acetone was applied twice in an interval of 5 min between each application and the mean was calculated.

T1 sequence (Q7Z2W7 whole entry): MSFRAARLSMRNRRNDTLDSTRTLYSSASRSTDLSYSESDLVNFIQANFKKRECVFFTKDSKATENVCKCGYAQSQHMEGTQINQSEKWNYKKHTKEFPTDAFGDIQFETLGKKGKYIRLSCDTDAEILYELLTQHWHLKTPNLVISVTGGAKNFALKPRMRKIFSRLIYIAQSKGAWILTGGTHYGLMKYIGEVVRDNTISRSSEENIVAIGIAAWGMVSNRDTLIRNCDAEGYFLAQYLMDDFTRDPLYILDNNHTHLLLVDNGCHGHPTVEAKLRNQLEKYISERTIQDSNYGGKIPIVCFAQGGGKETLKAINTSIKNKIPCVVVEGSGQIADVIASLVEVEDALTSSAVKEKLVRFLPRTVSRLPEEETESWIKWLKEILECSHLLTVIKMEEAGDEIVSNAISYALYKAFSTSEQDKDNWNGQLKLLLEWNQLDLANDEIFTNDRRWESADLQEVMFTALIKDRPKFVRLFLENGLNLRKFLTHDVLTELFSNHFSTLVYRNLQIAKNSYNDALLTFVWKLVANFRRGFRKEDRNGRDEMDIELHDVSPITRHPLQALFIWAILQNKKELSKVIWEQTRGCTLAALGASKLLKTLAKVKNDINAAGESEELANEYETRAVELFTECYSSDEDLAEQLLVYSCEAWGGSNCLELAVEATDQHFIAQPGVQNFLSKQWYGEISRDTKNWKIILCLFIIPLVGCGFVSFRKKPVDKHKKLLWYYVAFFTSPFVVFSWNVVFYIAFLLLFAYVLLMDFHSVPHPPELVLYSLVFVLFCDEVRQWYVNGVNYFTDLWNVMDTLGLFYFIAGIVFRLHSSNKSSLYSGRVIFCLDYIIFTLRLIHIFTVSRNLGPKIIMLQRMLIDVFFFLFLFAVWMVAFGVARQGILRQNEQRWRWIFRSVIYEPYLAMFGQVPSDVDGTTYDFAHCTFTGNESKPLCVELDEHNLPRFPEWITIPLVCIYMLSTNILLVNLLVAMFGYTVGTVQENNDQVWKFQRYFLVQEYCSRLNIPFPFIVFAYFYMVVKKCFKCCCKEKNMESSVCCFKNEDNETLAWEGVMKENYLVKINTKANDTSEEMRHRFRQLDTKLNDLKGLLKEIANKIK

C[C@@H]1C(=O)N(C[C@H](Cc2ccccc2)N(Cc2ccccc2)Cc2ccccc2)[C@]1(Cc1ccccc1)C(=O)OC(C)(C)C [RGM8-51, 4(S)-Benzyl-3S-methyl-4-(tert-butoxy)carbonyl-1-[(2′S-dibenzylamino-3′-phenyl)prop-1′-yl]-2-oxoazetidine]
IC50 [1]: 1740 ± 1190 nM | OXA-induced cold hypersensitivity (cold-induced paw licking) ([2]; 0.1 µg i.pl., sustained activity from 15 to 30 min): still highly active | OXA-induced cold hypersensitivity (cold-induced paw licking) ([2]; 1 μg i.pl., significant at 15 min, peak effect from 30 to 60 min): attenuates the cold-induced paw licking in a significant manner
